Reference: US20240398828A1, “HETERO-ATOM CONTAINING COMPOUNDS AND USES THEREOF” (Kumquat Biosciences Inc., priority 2021, published 2024)

Assays:
[1] = biological target: T1, PTPN1 (i.e., PTP1B) (Homo sapiens, UniProt P18031); test: Phosphatase activity assay (DiFMUP substrate), PTP1B; type: biochemical; conditions: compounds binned ≤1 uM or >1 uM
T1 sequence (P18031 1-435): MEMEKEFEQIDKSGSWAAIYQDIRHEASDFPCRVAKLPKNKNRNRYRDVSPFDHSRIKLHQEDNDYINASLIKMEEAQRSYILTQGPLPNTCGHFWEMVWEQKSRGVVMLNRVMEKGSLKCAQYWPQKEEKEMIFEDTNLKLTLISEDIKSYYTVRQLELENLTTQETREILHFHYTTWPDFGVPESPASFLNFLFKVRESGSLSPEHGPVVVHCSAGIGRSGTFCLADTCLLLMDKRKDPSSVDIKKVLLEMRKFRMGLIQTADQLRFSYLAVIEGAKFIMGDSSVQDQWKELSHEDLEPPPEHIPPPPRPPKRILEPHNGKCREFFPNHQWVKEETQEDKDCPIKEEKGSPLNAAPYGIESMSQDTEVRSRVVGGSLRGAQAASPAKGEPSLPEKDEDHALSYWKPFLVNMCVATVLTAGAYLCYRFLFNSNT
Procedure, shortened: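 Read-out is continuous fluorescence of DiFMU (360 nm excitation, 450 nm emission) over about 15-30 minutes, with DiFMUP substrate at the enzyme's independently determined Km (PTPN2 approx. 45 μM final). Buffer: 50 mM HEPES pH 7.5, 150 mM NaCl, 0.5 mM EDTA, 1 mM DTT, 0.001% Tween-20, room temperature; initial rates versus 10-point dilution fitted for IC50, at least duplicate.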

[2] = biological target: T2, PTPN2 (i.e., TC-PTP) (Homo sapiens, UniProt P17706); test: Phosphatase activity assay (DiFMUP substrate), PTPN2; type: biochemical; conditions: compounds binned ≤1 uM or >1 uM
T2 sequence (P17706 1-415): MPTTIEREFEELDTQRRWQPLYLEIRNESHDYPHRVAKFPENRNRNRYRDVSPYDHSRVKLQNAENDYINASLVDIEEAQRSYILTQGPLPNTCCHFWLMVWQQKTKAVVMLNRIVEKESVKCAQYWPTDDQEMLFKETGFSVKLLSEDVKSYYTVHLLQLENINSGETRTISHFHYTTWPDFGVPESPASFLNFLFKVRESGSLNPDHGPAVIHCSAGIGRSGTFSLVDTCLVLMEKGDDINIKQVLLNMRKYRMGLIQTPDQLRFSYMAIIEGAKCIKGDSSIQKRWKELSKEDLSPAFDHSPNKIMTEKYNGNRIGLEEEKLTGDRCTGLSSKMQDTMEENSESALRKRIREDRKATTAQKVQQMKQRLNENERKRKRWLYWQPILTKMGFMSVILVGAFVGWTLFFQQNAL
Procedure, shortened: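 Continuous fluorogenic readout of DiFMUP dephosphorylation at room temperature, substrate set at Km for each phosphatase (about 45 μM in the PTPN2 assay). The buffer contains 1 mM DTT and 0.001% Tween-20, pH 7.5.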

Row | Compound | IC50 [1] | IC50 [2]
1 | O=C1CN(c2c(O)ccc(-c3[nH]nc(C4CC4)c3F)c2F)S(=O)(=O)N1 [Compound 314, 5-(3-(3-cyclopropyl-4-fluoro-1H-pyrazol-5-yl)-2-fluoro-6-hydroxyphenyl)-1,2,5-thiadiazolidin-3-one 1,1-dioxide] | ≤ 1 µM | ≤ 1 µM
2 | NC(=O)C1CC1c1cc(-c2ccc(O)c(N3CC(=O)NS3(=O)=O)c2F)[nH]n1 (stereo not shown) [Compound 533, 2-(5-(3-(1,1-dioxido-4-oxo-1,2,5-thiadiazolidin-2-yl)-2-fluoro-4-hydroxyphenyl)-1H-pyrazol-3-yl)cyclopropane-1-carboxamide] | ≤ 1 µM | ≤ 1 µM
3 | Cn1nc(-c2ccc(O)c(N3CC(=O)NS3(=O)=O)c2F)cc1CCC1CC1 [Compound 463, 5-(3-(5-(2-cyclopropylethyl)-1-methyl-1H-pyrazol-3-yl)-2-fluoro-6-hydroxyphenyl)-1,2,5-thiadiazolidin-3-one 1,1-dioxide] | ≤ 1 µM | ≤ 1 µM
4 | Cn1ncc(-c2ccc(O)c(N3CC(=O)NS3(=O)=O)c2F)n1 [Compound 178, 5-(2-fluoro-6-hydroxy-3-(2-methyl-2H-1,2,3-triazol-4-yl)phenyl)-1,2,5-thiadiazolidin-3-one 1,1-dioxide] | ≤ 1 µM | ≤ 1 µM
5 | O=C1CN(c2c(O)ccc(-c3cc(C4CCCCC4)n[nH]3)c2F)S(=O)(=O)N1 [Compound 371, 5-(3-(3-cyclohexyl-1H-pyrazol-5-yl)-2-fluoro-6-hydroxyphenyl)-1,2,5-thiadiazolidin-3-one 1,1-dioxide] | ≤ 1 µM | ≤ 1 µM
6 | Cn1nc(C2CC2)cc1-c1ccc(O)c(N2CC(=O)NS2(=O)=O)c1F [Compound 278, 5-(3-(3-cyclopropyl-1-methyl-1H-pyrazol-5-yl)-2-fluoro-6-hydroxyphenyl)-1,2,5-thiadiazolidin-3-one 1,1-dioxide] | ≤ 1 µM | ≤ 1 µM
7 | Cc1nc(-c2ccc(O)c(N3CC(=O)NS3(=O)=O)c2F)cn1C [Compound 199, 5-(3-(1,2-dimethyl-1H-imidazol-4-yl)-2-fluoro-6-hydroxyphenyl)-1,2,5-thiadiazolidin-3-one 1,1-dioxide] | ≤ 1 µM | ≤ 1 µM
8 | Cc1cc(-c2cnn(CCC(C)C)c2)cc(N2CC(=O)NS2(=O)=O)c1O [Compound 145, 5-(2-hydroxy-5-(1-isopentyl-1H-pyrazol-4-yl)-3-methylphenyl)-1,2,5-thiadiazolidin-3-one 1,1-dioxide] | > 1 µM | > 1 µM
9 | CCn1cc(-c2ccc(O)c(N3CC(=O)NS3(=O)=O)c2F)cn1 [Compound 486, 5-(3-(1-ethyl-1H-pyrazol-4-yl)-2-fluoro-6-hydroxyphenyl)-1,2,5-thiadiazolidin-3-one 1,1-dioxide] | ≤ 1 µM | ≤ 1 µM
10 | Cc1ccc(-c2ccc(O)c(N3CC(=O)NS3(=O)=O)c2F)cn1 [Compound 180, 5-(2-fluoro-6-hydroxy-3-(6-methylpyridin-3-yl)phenyl)-1,2,5-thiadiazolidin-3-one 1,1-dioxide] | ≤ 1 µM | ≤ 1 µM
11 | O=C1CN(c2c(O)ccc(-c3cnn(C(F)(F)C(F)F)c3)c2F)S(=O)(=O)N1 [Compound 410, 5-(2-fluoro-6-hydroxy-3-(1-(1,1,2,2-tetrafluoroethyl)-1H-pyrazol-4-yl)phenyl)-1,2,5-thiadiazolidin-3-one 1,1-dioxide] | ≤ 1 µM | ≤ 1 µM
12 | O=C1CN(c2c(O)ccc(-c3ccc(NS(=O)(=O)C4CC4)cc3F)c2F)S(=O)(=O)N1 [Compound 438, N-(3′-(1,1-dioxido-4-oxo-1,2,5-thiadiazolidin-2-yl)-2,2′-difluoro-4′-hydroxy-[1,1′-biphenyl]-4-yl)cyclopropanesulfonamide] | ≤ 1 µM | ≤ 1 µM
13 | CC1(N)CCN(c2cc(-c3ccc(O)c(N4CC(=O)NS4(=O)=O)c3F)[nH]n2)C1 (stereo not shown) [Compound 279, 5-(3-(3-(3-amino-3-methylpyrrolidin-1-yl)-1H-pyrazol-5-yl)-2-fluoro-6-hydroxyphenyl)-1,2,5-thiadiazolidin-3-one 1,1-dioxide] | ≤ 1 µM | ≤ 1 µM
14 | CC(C)CCn1cc(-c2ccc(O)c(N3CC(=O)NS3(=O)=O)c2)cn1 [Compound 132, 5-(2-hydroxy-5-(1-isopentyl-1H-pyrazol-4-yl)phenyl)-1,2,5-thiadiazolidin-3-one 1,1-dioxide] | ≤ 1 µM | ≤ 1 µM
15 | O=C1CN(c2c(O)ccc(-c3ccc(NS(=O)(=O)C4CC4)cc3)c2F)S(=O)(=O)N1 [Compound 292, N-(3′-(1,1-dioxido-4-oxo-1,2,5-thiadiazolidin-2-yl)-2′-fluoro-4′-hydroxy-[1,1′-biphenyl]-4-yl)cyclopropanesulfonamide] | ≤ 1 µM | ≤ 1 µM

Other lines, results leading:

Row | IC50 [1] | IC50 [2] | Compound
16 | ≤ 1 µM | ≤ 1 µM | O=C1CN(c2c(O)ccc(C3=CC(CC4CC4)NC3)c2F)S(=O)(=O)N1 (stereo not shown) [Compound 522, 5-(3-(5-(cyclopropylmethyl)-2,5-dihydro-1H-pyrrol-3-yl)-2-fluoro-6-hydroxyphenyl)-1,2,5-thiadiazolidin-3-one 1,1-dioxide]
17 | ≤ 1 µM | ≤ 1 µM | O=C1CN(c2c(O)ccc(-c3ccnc(OCC4CC4)c3)c2F)S(=O)(=O)N1 [Compound 167, 5-(3-(2-(cyclopropylmethoxy)pyridin-4-yl)-2-fluoro-6-hydroxyphenyl)-1,2,5-thiadiazolidin-3-one 1,1-dioxide]
18 | ≤ 1 µM | ≤ 1 µM | O=C1CN(c2c(O)ccc(-c3ccc(-c4ccccc4)nc3)c2F)S(=O)(=O)N1 [Compound 120, 5-(2-fluoro-6-hydroxy-3-(6-phenylpyridin-3-yl)phenyl)-1,2,5-thiadiazolidin-3-one 1,1-dioxide]
19 | ≤ 1 µM | ≤ 1 µM | N=C(N)N1CCC=C(c2ccc(O)c(N3CC(=O)NS3(=O)=O)c2F)C1 [Compound 499, 5-(3-(1,1-dioxido-4-oxo-1,2,5-thiadiazolidin-2-yl)-2-fluoro-4-hydroxyphenyl)-3,6-dihydropyridine-1(2H)-carboximidamide]
20 | ≤ 1 µM | ≤ 1 µM | N=C(N)N1CC=C(c2ccc(O)c(N3CC(=O)NS3(=O)=O)c2F)C1 [Compound 502, 3-(3-(1,1-dioxido-4-oxo-1,2,5-thiadiazolidin-2-yl)-2-fluoro-4-hydroxyphenyl)-2,5-dihydro-1H-pyrrole-1-carboximidamide]
21 | ≤ 1 µM | ≤ 1 µM | O=C1CN(c2c(O)ccc(-c3ccc(NS(=O)(=O)C4CC4)nc3)c2F)S(=O)(=O)N1 [Compound 320, N-(5-(3-(1,1-dioxido-4-oxo-1,2,5-thiadiazolidin-2-yl)-2-fluoro-4-hydroxyphenyl)pyridin-2-yl)cyclopropanesulfonamide]
22 | ≤ 1 µM | ≤ 1 µM | Cn1nc(-c2ccc(O)c(N3CC(=O)NS3(=O)=O)c2F)cc1C1CC1(F)F (stereo not shown) [Compound 319, 5-(3-(5-(2,2-difluorocyclopropyl)-1-methyl-1H-pyrazol-3-yl)-2-fluoro-6-hydroxyphenyl)-1,2,5-thiadiazolidin-3-one 1,1-dioxide]
23 | > 1 µM | > 1 µM | CC1(C)C=C(c2ccc(O)c(N3CC(=O)NS3(=O)=O)c2F)CN1 [Compound 519, 5-(3-(5,5-dimethyl-2,5-dihydro-1H-pyrrol-3-yl)-2-fluoro-6-hydroxyphenyl)-1,2,5-thiadiazolidin-3-one 1,1-dioxide]
